Experimental data: ChEMBL document CHEMBL5465560, “Selectivity Literature for EUbOPEN Chemogenomic Library” (2024)

Assays:
[1] = molecular target: Mitogen-activated protein kinase kinase kinase kinase 1 (Homo sapiens) (UniProt Q92918); test: Selectivity interaction (Kinase panel (KiNativ target engagement assay in Jurkat cells)) EUB0001635a MAP4K1; format: cell-based; conditions: Selectivity number of off-targets 0.0, Selectivity number of targets 233.0, Source Knowledge https://www.sciencedirect.com/science/article/pii/S2451945619300674?via%3Dihub, at 1 µM
Mitogen-activated protein kinase kinase kinase kinase 1 (Homo sapiens), sequence (Q92918 whole entry, looked up, canonical isoform): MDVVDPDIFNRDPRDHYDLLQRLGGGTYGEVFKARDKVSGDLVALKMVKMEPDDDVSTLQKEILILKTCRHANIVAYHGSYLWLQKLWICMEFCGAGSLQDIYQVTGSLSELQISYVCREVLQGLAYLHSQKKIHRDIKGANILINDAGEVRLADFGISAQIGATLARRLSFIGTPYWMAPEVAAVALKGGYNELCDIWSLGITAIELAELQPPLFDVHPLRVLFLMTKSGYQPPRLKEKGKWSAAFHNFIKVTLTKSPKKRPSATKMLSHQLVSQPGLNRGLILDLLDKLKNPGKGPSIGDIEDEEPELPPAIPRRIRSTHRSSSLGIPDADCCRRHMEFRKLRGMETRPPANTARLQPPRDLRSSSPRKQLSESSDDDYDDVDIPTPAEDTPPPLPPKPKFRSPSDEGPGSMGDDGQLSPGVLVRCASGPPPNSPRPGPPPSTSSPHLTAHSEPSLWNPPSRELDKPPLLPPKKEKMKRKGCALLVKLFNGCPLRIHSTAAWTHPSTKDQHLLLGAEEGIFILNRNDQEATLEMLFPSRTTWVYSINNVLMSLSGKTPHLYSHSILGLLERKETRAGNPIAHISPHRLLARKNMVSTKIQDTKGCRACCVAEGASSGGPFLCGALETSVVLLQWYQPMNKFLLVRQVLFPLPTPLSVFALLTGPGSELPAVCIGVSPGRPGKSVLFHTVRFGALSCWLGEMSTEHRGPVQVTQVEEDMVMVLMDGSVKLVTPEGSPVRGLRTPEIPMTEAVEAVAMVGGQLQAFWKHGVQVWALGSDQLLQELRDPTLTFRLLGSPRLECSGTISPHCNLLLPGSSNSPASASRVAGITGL

[2] = molecular target: Phosphatidylinositol 4,5-bisphosphate 3-kinase catalytic subunit gamma isoform (Homo sapiens) (UniProt P48736); test: Selectivity interaction (ActivX KiNativ screen (kinase selectivity in THP-1 cell lysates)) EUB0000639a PIK3CG; format: subcellular; conditions: lysate
Phosphatidylinositol 4,5-bisphosphate 3-kinase catalytic subunit gamma isoform (Homo sapiens), sequence (P48736 whole entry, looked up, canonical isoform): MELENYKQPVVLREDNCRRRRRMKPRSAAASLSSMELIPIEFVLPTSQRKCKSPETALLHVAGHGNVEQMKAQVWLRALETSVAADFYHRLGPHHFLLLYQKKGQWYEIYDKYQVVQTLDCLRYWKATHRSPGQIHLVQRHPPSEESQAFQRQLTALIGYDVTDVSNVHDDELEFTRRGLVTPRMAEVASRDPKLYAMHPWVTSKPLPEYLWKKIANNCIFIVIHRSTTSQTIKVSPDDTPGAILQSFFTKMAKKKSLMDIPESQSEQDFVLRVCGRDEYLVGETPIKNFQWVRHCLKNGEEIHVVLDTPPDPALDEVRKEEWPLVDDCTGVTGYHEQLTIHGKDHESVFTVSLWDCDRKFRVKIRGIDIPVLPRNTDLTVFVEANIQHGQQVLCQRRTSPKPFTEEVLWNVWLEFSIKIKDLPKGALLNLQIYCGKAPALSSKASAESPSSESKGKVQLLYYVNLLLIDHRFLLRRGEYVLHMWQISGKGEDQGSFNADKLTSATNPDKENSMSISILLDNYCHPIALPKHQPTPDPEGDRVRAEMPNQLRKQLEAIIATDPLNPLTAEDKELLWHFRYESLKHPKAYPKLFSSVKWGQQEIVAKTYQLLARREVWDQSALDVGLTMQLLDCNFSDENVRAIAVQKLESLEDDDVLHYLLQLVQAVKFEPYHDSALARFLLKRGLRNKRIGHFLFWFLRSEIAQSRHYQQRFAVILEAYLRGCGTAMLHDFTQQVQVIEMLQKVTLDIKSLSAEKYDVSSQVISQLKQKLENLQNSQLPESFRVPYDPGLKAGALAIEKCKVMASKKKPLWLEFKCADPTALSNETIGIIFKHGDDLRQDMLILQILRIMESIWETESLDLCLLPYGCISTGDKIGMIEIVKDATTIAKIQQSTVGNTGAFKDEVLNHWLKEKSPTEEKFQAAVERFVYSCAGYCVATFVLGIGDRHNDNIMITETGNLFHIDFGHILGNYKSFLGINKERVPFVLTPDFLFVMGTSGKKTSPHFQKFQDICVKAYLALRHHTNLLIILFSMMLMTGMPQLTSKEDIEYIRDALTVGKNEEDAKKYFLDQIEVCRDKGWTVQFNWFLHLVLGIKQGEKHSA

[3] = molecular target: Receptor-interacting serine/threonine-protein kinase 2 (Homo sapiens, UniProt O43353); test: Selectivity interaction (Kinase panel (Invitrogen)) EUB0000639a RIPK2; conditions: at 200 nM
Receptor-interacting serine/threonine-protein kinase 2, sequence (O43353 whole entry): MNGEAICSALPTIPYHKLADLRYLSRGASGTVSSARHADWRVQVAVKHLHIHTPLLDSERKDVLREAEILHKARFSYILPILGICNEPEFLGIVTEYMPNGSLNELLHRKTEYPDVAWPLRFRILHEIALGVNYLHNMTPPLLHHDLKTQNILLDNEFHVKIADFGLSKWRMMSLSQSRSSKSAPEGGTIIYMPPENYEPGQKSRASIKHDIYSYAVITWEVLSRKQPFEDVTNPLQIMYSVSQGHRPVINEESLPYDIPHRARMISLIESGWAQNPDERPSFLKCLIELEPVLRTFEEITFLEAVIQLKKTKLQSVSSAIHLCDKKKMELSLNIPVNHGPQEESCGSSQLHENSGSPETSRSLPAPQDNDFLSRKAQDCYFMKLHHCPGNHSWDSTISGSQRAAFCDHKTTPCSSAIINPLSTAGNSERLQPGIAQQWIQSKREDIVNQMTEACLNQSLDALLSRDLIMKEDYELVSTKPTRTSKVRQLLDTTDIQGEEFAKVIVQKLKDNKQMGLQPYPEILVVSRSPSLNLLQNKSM

[4] = molecular target: T1, Cyclin-G-associated kinase (Homo sapiens) (UniProt O14976); test: Selectivity interaction (KinomeScan (DiscoverX)) EUB0000092b GAK; conditions: at 10 µM
T1 sequence (whole entry): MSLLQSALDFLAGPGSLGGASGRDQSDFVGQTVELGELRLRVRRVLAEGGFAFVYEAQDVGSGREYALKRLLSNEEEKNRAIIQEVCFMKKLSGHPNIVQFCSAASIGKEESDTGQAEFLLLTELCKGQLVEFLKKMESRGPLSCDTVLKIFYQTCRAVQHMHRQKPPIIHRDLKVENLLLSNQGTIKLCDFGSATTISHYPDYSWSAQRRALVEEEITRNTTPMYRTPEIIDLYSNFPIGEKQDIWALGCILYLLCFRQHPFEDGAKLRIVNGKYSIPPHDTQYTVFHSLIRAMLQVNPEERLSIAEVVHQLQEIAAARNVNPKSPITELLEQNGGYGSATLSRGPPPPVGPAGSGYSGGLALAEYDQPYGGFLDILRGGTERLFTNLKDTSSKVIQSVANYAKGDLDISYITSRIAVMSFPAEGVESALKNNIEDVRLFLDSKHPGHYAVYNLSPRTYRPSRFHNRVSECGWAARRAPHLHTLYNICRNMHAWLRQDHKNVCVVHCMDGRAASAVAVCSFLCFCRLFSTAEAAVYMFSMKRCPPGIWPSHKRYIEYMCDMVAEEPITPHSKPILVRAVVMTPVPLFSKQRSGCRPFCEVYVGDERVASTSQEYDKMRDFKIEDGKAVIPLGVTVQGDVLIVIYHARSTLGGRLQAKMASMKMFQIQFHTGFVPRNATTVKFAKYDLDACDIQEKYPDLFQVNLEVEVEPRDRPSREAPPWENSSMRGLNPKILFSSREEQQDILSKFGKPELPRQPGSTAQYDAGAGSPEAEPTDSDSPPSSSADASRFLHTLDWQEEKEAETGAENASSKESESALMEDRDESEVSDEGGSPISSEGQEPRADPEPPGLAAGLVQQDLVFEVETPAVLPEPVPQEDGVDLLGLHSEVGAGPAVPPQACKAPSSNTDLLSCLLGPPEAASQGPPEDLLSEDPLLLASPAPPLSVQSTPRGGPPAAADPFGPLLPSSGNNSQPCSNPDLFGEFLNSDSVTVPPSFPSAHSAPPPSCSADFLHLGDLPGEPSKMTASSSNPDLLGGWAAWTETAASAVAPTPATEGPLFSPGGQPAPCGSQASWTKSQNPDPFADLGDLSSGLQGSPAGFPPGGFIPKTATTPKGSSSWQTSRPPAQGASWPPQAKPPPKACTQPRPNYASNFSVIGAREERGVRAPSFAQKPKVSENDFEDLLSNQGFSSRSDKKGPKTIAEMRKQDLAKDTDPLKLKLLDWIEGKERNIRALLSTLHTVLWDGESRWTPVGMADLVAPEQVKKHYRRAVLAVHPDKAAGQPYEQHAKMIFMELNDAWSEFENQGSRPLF

[5] = molecular target: Protein-tyrosine kinase 2-beta (Homo sapiens) (UniProt Q14289); test: Selectivity interaction (Kinase screening (Nanosyn)) EUB0000604a PTK2B
Protein-tyrosine kinase 2-beta (Homo sapiens), sequence (Q14289 whole entry, looked up): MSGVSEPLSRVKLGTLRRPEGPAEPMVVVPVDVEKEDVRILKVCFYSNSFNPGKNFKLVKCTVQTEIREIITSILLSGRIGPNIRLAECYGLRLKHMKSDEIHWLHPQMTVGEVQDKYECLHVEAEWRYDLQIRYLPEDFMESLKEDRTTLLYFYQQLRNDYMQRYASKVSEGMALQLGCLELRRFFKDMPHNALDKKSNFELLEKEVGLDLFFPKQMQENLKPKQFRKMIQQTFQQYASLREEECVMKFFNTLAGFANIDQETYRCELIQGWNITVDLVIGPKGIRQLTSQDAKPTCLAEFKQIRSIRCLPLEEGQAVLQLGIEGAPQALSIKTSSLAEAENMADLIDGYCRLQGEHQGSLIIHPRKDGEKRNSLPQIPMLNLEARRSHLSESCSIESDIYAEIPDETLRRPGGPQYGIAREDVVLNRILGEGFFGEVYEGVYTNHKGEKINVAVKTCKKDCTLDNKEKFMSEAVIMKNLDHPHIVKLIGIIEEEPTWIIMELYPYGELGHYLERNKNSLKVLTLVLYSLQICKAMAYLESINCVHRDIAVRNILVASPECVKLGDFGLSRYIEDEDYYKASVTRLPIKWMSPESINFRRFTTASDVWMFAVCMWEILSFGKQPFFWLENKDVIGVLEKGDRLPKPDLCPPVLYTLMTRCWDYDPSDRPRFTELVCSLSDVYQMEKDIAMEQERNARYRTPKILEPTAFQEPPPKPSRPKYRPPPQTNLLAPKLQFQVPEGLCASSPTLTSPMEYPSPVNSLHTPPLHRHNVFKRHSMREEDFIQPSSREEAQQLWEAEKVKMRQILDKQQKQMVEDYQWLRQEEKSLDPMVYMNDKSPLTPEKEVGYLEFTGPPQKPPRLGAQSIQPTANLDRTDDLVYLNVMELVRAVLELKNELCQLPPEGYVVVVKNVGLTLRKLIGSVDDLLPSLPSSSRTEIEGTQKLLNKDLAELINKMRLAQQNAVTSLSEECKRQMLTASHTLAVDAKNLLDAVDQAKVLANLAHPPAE

[6] = molecular target: T2, Serine/threonine-protein kinase Nek8 (Homo sapiens) (UniProt Q86SG6); test: Selectivity interaction (LanthaScreen Eu Kinase Binding Assay) EUB0001632a NEK8; conditions: at 10 µM
T2 sequence (whole entry): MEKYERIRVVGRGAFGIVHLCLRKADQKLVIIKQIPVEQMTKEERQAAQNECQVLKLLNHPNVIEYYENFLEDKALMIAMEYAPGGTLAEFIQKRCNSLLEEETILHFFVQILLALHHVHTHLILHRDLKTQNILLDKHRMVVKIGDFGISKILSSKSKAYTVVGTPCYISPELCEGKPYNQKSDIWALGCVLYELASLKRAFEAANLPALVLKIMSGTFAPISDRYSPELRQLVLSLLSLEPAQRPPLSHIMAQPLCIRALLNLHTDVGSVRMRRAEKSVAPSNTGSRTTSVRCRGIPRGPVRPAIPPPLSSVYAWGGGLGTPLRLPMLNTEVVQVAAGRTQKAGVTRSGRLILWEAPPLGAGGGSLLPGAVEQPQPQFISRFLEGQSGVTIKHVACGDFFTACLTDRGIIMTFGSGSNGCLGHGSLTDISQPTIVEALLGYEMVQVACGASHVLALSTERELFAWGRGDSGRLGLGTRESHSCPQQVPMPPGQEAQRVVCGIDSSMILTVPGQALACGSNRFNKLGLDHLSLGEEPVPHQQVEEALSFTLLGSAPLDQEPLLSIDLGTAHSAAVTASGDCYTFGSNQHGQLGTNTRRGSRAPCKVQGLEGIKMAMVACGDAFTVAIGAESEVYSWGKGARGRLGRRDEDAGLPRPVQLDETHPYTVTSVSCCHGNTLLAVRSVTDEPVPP

C=CC(=O)Nc1ccc(C(=O)Nc2[nH]nc3c2CN(C(=O)N[C@H](CN(C)C)c2ccccc2)C3(C)C)cc1
% of engagement [1]: 4.4%

CC[C@@H]1[C@H](F)C(=O)N[C@@H]1COc1nccc2cc(C(N)=O)c(OC)cc12 [ZIMLOVISERTIB]
% of inhibition ([2]; at 0.01 µM): 6.3% | % of inhibition ([2]; at 0.04 µM): 12% | % of inhibition ([2]; at 0.2 µM): 7.4% | % of inhibition ([2]; at 1 µM): 13.3% | % of inhibition ([2]; at 5 µM): 2.6% | % of inhibition [3]: 16.8%

CCC(=O)N1CCN(c2ccc(-n3c(=O)ccc4cnc5ccc(-c6cnc7ccccc7c6)cc5c43)cc2C(F)(F)F)CC1
% of control [4]: 57%

Cc1cnc(Nc2ccc(F)cc2Cl)nc1-c1c[nH]c(C(=O)N[C@H](CO)c2cccc(Cl)c2)c1
% of inhibition [5]: 6%

Cn1cc(-n2cnc3c(NCc4nc5cc(Cl)c(Cl)cc5[nH]4)nc(N4CCOCC4)nc32)cn1
% of inhibition [6]: -38.3%
